From ChEMBL document CHEMBL1629501, “Regiospecific synthesis and biological evaluation of spirooxindolopyrrolizidines via [3+2] cycloaddition of azomethine ylide” (2010)
Values after ≈ are worked out from the molar mass of the structure shown. Active and inactive are the calls of the source. No cut-off for these calls is given here.

Experiments:
[1] = system: Staphylococcus aureus; assay: Antibacterial activity against Staphylococcus aureus ATCC 25825 after 24 hrs by twofold serial dilution method; assay type: functional; settings: ATCC 25825, 24 h
[2] = system: Bacillus subtilis; assay: Antibacterial activity against Bacillus subtilis ATCC 451 after 24 hrs by twofold serial dilution method; assay type: functional; settings: ATCC 451, 24 h
[3] = system: Salmonella typhi; assay: Antibacterial activity against Salmonella typhi ATCC 24915 after 24 hrs by twofold serial dilution method; assay type: functional, Salmonella enterica subsp. enterica serovar Typhi; settings: Salmonella enterica, ATCC 24915, 24 h
[4] = system: Escherichia coli; assay: Antibacterial activity against Escherichia coli ATCC 25835 after 24 hrs by twofold serial dilution method; assay type: functional; settings: ATCC 25835, 24 h
[5] = system: Klebsiella pneumoniae; assay: Antibacterial activity against Klebsiella pneumoniae ATCC 15490 after 24 hrs by twofold serial dilution method; assay type: functional; settings: ATCC 15490, 24 h
[6] = system: Cryptococcus neoformans; assay: Antifungal activity against Cryptococcus neoformans ATCC 3312 after 72 to 96 hrs by twofold serial dilution method; assay type: functional
[7] = system: Candida albicans; assay: Antifungal activity against Candida albicans ATCC 3122 by twofold serial dilution method; assay type: functional
[8] = system: Rhizopus; assay: Antifungal activity against Rhizopus sp. ATCC 2915 after 72 to 96 hrs by twofold serial dilution method; assay type: functional
[9] = system: Aspergillus flavus; assay: Antifungal activity against Aspergillus flavus ATCC 485 after 72 to 96 hrs by twofold serial dilution method; assay type: functional
[10] = system: Aspergillus niger; assay: Antifungal activity against Aspergillus niger ATCC 598 after 72 to 96 hrs by twofold serial dilution method; assay type: functional
[11] = system: Klebsiella pneumoniae; assay: Antibacterial activity against Klebsiella pneumoniae ATCC 15490 at 200 ug/ml after 24 hrs by twofold serial dilution method; assay type: functional, organism-based

Compound `O=C(c1cccs1)[C@H]1[C@H](c2ccccc2)C2CCCN2[C@]12C(=O)Nc1ccccc12` (stereo partly drawn) has an MIC [1] of 50 µg/mL (≈ 121 µM), an MIC [2] of 100 µg/mL (≈ 241 µM) and an MIC [3] of 100 µg/mL (≈ 241 µM). For the same compound, the MIC [4] was 100 µg/mL (≈ 241 µM), the MIC [5] was 200 µg/mL (≈ 482 µM) and the MIC [6] was 50 µg/mL (≈ 121 µM). The MIC [7] was 100 µg/mL (≈ 241 µM), the MIC [8] was 200 µg/mL (≈ 482 µM) and the MIC [9] was 200 µg/mL (≈ 482 µM).

In the case of `O=C(c1cccs1)[C@H]1[C@H](c2ccc(F)cc2)C2CCCN2[C@]12C(=O)Nc1ccccc12` (stereo partly drawn), the MIC [1] was 6.25 µg/mL (≈ 14.5 µM), the MIC [2] was 25 µg/mL (≈ 57.8 µM) and the MIC [3] was 6.25 µg/mL (≈ 14.5 µM). It also gave an MIC [4] of 50 µg/mL (≈ 116 µM), an MIC [6] of 25 µg/mL (≈ 57.8 µM) and an MIC [7] of 6.25 µg/mL (≈ 14.5 µM). For the same compound, the MIC [8] was 6.25 µg/mL (≈ 14.5 µM), the MIC [10] was 200 µg/mL (≈ 462 µM) and the MIC [9] was 100 µg/mL (≈ 231 µM). The Activity [11] was “inactive”.

`Cc1ccc([C@@H]2C3CCCN3[C@]3(C(=O)Nc4ccccc43)[C@H]2C(=O)c2cccs2)cc1` (stereo partly drawn) gave an MIC [1] of 50 µg/mL (≈ 117 µM), an MIC [2] of 25 µg/mL (≈ 58.3 µM) and an MIC [3] of 6.25 µg/mL (≈ 14.6 µM). The MIC [4] was 50 µg/mL (≈ 117 µM), the MIC [5] was 100 µg/mL (≈ 233 µM) and the MIC [6] was 100 µg/mL (≈ 233 µM). For the same compound, the MIC [7] was 100 µg/mL (≈ 233 µM), the MIC [8] was 100 µg/mL (≈ 233 µM) and the MIC [9] was 25 µg/mL (≈ 58.3 µM).

`C[C@@H]1[C@H](O)[C@@H](C)/C=C/C=C/C=C/C=C/C=C/C=C/C=C/[C@H](O[C@@H]2O[C@H](C)[C@@H](O)[C@H](N)[C@@H]2O)C[C@@H]2O[C@](O)(C[C@@H](O)C[C@@H](O)[C@H](O)CC[C@@H](O)C[C@@H](O)CC(=O)O[C@H]1C)C[C@H](O)[C@H]2C(=O)O` [AMPHOTERICIN B] gave an MIC [6] of 25 µg/mL (≈ 27.1 µM), an MIC [7] of 25 µg/mL (≈ 27.1 µM) and an MIC [8] of 25 µg/mL (≈ 27.1 µM). The MIC [10] was 50 µg/mL (≈ 54.1 µM) and the MIC [9] was 50 µg/mL (≈ 54.1 µM).

For `CN(C)c1ccc([C@@H]2C3CCCN3[C@]3(C(=O)Nc4ccccc43)[C@H]2C(=O)c2cccs2)cc1` (stereo partly drawn), the MIC [1] was 200 µg/mL (≈ 437 µM), the MIC [2] was 50 µg/mL (≈ 109 µM) and the MIC [3] was 100 µg/mL (≈ 219 µM). It also gave an MIC [4] of 100 µg/mL (≈ 219 µM), an MIC [5] of 50 µg/mL (≈ 109 µM) and an MIC [6] of 50 µg/mL (≈ 109 µM). For the same compound, the MIC [7] was 100 µg/mL (≈ 219 µM), the MIC [8] was 50 µg/mL (≈ 109 µM) and the MIC [10] was 100 µg/mL (≈ 219 µM). It also gave an MIC [9] of 200 µg/mL (≈ 437 µM).

In the case of `O=C(c1cccs1)[C@H]1[C@H](c2ccc(Cl)cc2)C2CCCN2[C@]12C(=O)Nc1ccccc12` (stereo partly drawn), the MIC [1] was 6.25 µg/mL (≈ 13.9 µM), the MIC [2] was 12.5 µg/mL (≈ 27.8 µM) and the MIC [3] was 6.25 µg/mL (≈ 13.9 µM). The MIC [4] was 25 µg/mL (≈ 55.7 µM), the MIC [6] was 12.5 µg/mL (≈ 27.8 µM) and the MIC [7] was 25 µg/mL (≈ 55.7 µM). It also gave an MIC [8] of 6.25 µg/mL (≈ 13.9 µM), an MIC [10] of 25 µg/mL (≈ 55.7 µM) and an MIC [9] of 100 µg/mL (≈ 223 µM). For the same compound, the Activity [11] was “inactive”.

In the case of `COc1ccc([C@@H]2C3CCCN3[C@]3(C(=O)Nc4ccccc43)[C@H]2C(=O)c2cccs2)cc1` (stereo partly drawn), the MIC [1] was 6.25 µg/mL (≈ 14.1 µM), the MIC [2] was 50 µg/mL (≈ 112 µM) and the MIC [3] was 100 µg/mL (≈ 225 µM). For the same compound, the MIC [4] was 100 µg/mL (≈ 225 µM), the MIC [5] was 25 µg/mL (≈ 56.2 µM) and the MIC [6] was 50 µg/mL (≈ 112 µM). The MIC [7] was 100 µg/mL (≈ 225 µM), the MIC [8] was 50 µg/mL (≈ 112 µM) and the MIC [10] was 100 µg/mL (≈ 225 µM). The MIC [9] was 25 µg/mL (≈ 56.2 µM).

Work on `O=C(c1cccs1)[C@H]1[C@H](c2cccc(Br)c2)C2CCCN2[C@]12C(=O)Nc1ccccc12` (stereo partly drawn) yielded an MIC [1] of 25 µg/mL (≈ 50.7 µM), an MIC [2] of 25 µg/mL (≈ 50.7 µM) and an MIC [3] of 100 µg/mL (≈ 203 µM). It also gave an MIC [4] of 50 µg/mL (≈ 101 µM), an MIC [5] of 100 µg/mL (≈ 203 µM) and an MIC [6] of 25 µg/mL (≈ 50.7 µM). The MIC [7] was 50 µg/mL (≈ 101 µM), the MIC [8] was 12.5 µg/mL (≈ 25.3 µM) and the MIC [10] was 100 µg/mL (≈ 203 µM). It also gave an MIC [9] of 200 µg/mL (≈ 405 µM).

Compound `CN[C@@H]1[C@H](O[C@H]2[C@H](O[C@H]3[C@H](O)[C@@H](O)[C@H](N=C(N)N)[C@@H](O)[C@@H]3N=C(N)N)O[C@@H](C)[C@]2(O)C=O)O[C@@H](CO)[C@H](O)[C@H]1O` [STREPTOMYCIN] has an MIC [1] of 50 µg/mL (≈ 86 µM), an MIC [2] of 12.5 µg/mL (≈ 21.5 µM) and an MIC [3] of 50 µg/mL (≈ 86 µM). For the same compound, the MIC [4] was 12.5 µg/mL (≈ 21.5 µM) and the MIC [5] was 25 µg/mL (≈ 43 µM).

For `O=C(c1cccs1)[C@H]1[C@H](c2ccc([N+](=O)[O-])cc2)C2CCCN2[C@]12C(=O)Nc1ccccc12` (stereo partly drawn), the MIC [1] was 100 µg/mL (≈ 218 µM), the MIC [2] was 50 µg/mL (≈ 109 µM) and the MIC [3] was 100 µg/mL (≈ 218 µM). For the same compound, the MIC [4] was 200 µg/mL (≈ 435 µM), the MIC [5] was 50 µg/mL (≈ 109 µM) and the MIC [6] was 100 µg/mL (≈ 218 µM). It also gave an MIC [7] of 200 µg/mL (≈ 435 µM), an MIC [8] of 50 µg/mL (≈ 109 µM) and an MIC [10] of 100 µg/mL (≈ 218 µM). For the same compound, the MIC [9] was 200 µg/mL (≈ 435 µM).
